Measured values from US11578055B2, “Triazacyclododecansulfonamide (“TCD”)-based protein secretion inhibitors” (KEZAR LIFE SCIENCES, priority 2018, dated 2023).
Read-outs that look alike come from different tables or passages of the source.

Tests used:
[1] = In Vitro Microsome Stability Assay (rat); assay type: in vitro ADME
How it was run: (§1)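 Test article, added from a 0.25 mM DMSO stock, was incubated with liver microsomes (20 mg/mL stock) in 0.1 M potassium phosphate at 37° C, with the reaction started by NADPH. Samples were quenched with acetonitrile containing internal standard at 0 and 30 min and analysed by LC-MS/MS. Values are % remaining at 30 min versus 0 min, using IS-normalised AUC ratios.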

[2] = system: multiple myeloma cell line U266B1; test: U266 Cell Viability Assay; assay type: cell-based, human; settings: Homo sapiens, U-266, 48 hr
How it was run: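 U266B1 myeloma cells in RPMI 1640 with 10% FBS were treated with compound dilutions for 48 h at 37° C, 5% CO2. Viability was read as CellTiter-Glo luminescence. Data for structures drawn without stereochemistry refer to stereoisomer mixtures.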

[3] = system: multiple myeloma cell line NCl-H929; test: H929 Cell Viability Assay; assay type: cell-based, human; settings: Homo sapiens, NCI-H929, 48 h
How it was run: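 NCI-H929 myeloma cells in RPMI 1640 with 10% FBS were treated with compound dilutions for 48 h at 37 °C, and viability was then read by CellTiter-Glo luminescence. Compounds drawn without stereochemistry were tested as stereoisomer mixtures.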

[4] = system: full length IL-2 (amino acids 1-153) fused to Gaussia Luciferase; test: Dox Induced IL2-FL-Gluc Assay; assay type: cell-based; settings: 24 hr, read-out: 24 hr Dox Inducible IL2FLGluc 293FRT/TO: Mean IC50
From the text: FIp-In 293 T-REx™ cells were transfected with pcDNA™5/FRT/TO plasmid inserted with cDNA encoding Gaussia Luciferase fused to the 3′ end of cDNA encoding full length IL-2 (amino acids 1-153). Transfected cells were selected for resistance to the selectable markers Hygromycin and Blasticidin to create a stable cell line that contained the IL-2-FL/Gaussia Luciferase cDNA insert whose expression was regulated under the T-REx™ system. The day before assay, cells were trypsinized and plated in 384-well tissue culture plates. The next day, compound dilutions in DMSO/media containing doxycycline were added to the wells and incubated at 37° C., 5% CO2.
For chemical structures that include one or more stereoisomers, but are illustrated without indicating stereochemistry, the assay data refers to a mixture of stereoisomers.

[5] = In Vitro Microsome Stability Assay (monkey); assay type: in vitro ADME
How it was run: as §1

[6] = In Vitro Microsome Stability Assay (human); assay type: in vitro ADME
How it was run: as §1

[7] = In Vitro Microsome Stability Assay (mouse); assay type: in vitro ADME
How it was run: as §1

[8] = system: full length TNFα (amino acids 1-233) fused to Gaussia Luciferase; test: Dox Induced TNFα-FL-Gluc Assay; assay type: cell-based; settings: 24 hr, read-out: 24 hr Dox Inducible TNFaFLGluc 293FRT/TO: Mean IC50
How it was run: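 Stable Flp-In 293 T-REx line expressing doxycycline-inducible full-length TNFα fused to Gaussia luciferase; cells plated the day before, then treated with compound dilutions in doxycycline-containing medium at 37° C, 5% CO2. Unspecified stereocentres mean stereoisomer mixtures were tested.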

[9] = system: PD1 signal sequence plus 10 amino acids fused to Gaussia Luciferase (PD1-ss+10aa/Gaussia Luciferase); test: Dox Induced PD1-ss-Gluc Assay; assay type: cell-based; settings: 24 hr, read-out: 24 hr Dox Inducible PD1ssGluc 293FRT/TO: Mean IC50
How it was run: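 Stable Flp-In 293 T-REx line expressing the fusion under tetracycline-inducible control, plated the day before assay. Compound dilutions added with doxycycline and incubated at 37 °C, 5% CO2; unspecified stereocentres mean data refer to stereoisomer mixtures.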

[10] = U266, read-out: 48 hr U266 Viability Celltiter-Glo: Mean EC50
[11] = H929, read-out: 48 hr H929 Viability Celltiter-Glo: Mean EC50
[12] = monkey liver microsomes, 30 min w/ NADPH
[13] = human liver microsomes, 30 min w/ NADPH

SMILES	Liver Microsome Stability-% Left after 30 min w/ NADPH (%) Rat ([1]; rat, 30 min, NADPH)	EC50 [2, 10]	EC50 [3, 11]	IC50 ([4]; 293FRT/TO)	Liver Microsome Stability-% Left after 30 min w/ NADPH (%) Monkey ([5]; monkey, 30 min, NADPH)	Liver Microsome Stability-% Left after 30 min w/ NADPH (%) Human ([6]; human, 30 min, NADPH)	Liver Microsome Stability-% Left after 30 min w/ NADPH (%) Mouse ([7]; mouse, 30 min, NADPH)	IC50 ([8]; 293FRT/TO)	IC50 ([9]; 293FRT/TO)	Liver Microsome Stability-% Left after 30 min w/ NADPH (%) Monkey [5, 12]	Liver Microsome Stability-% Left after 30 min w/ NADPH (%) Human [6, 13]	Liver Microsome Stability-% Left after 30 min w/ NADPH (%) Rat ([1]; rat liver microsomes, 30 min w/ NADPH)	EC50 ([2]; U266, Celltiter-Glo)	EC50 ([3]; H929, Celltiter-Glo)	IC50 ([4]; Dox inducible, 293FRT/TO cells)	Liver Microsome Stability-% Left after 30 min w/ NADPH (%) Mouse ([7]; mouse liver microsomes, 30 min w/ NADPH)	IC50 ([8]; Dox inducible, 293FRT/TO cells)	IC50 ([9]; Dox inducible, 293FRT/TO cells)
C[C@H]1CN(S(=O)(=O)c2ccc(N(C)C)cc2)CCCN(CC2CCCCC2)CCCN(S(=O)(=O)N2CCN(c3ccc(F)cc3)CC2)C1 [A96, 4-{[(3S)-9-(cyclohexylmethyl)-5-{[4-(4-fluorophenyl)piperazin-1-yl]sulfonyl}-3-methyl-1,5,9-triazacyclododecan-1-yl]sulfonyl}-N,N-dimethylaniline]	41.9%	> 25000 nM	5100 nM	232 nM	32.8%	40.5%	37.6%	1850 nM	122 nM	–	–	–	–	–	–	–	–	–
Cc1ccccc1N1CCN(S(=O)(=O)N2CCCN(CC3CCCCC3)CCCN(S(=O)(=O)c3ccc(N(C)C)cc3)C[C@H](C)C2)CC1 [A97, 4-{[(3S)-9-(cyclohexylmethyl)-3-methyl-5-{[4-(2-methylphenyl)piperazin-1-yl]sulfonyl}-1,5,9-triazacyclododecan-1-yl]sulfonyl}-N,N-dimethylaniline]	71.4%	> 25000 nM	726 nM	87 nM	66.1%	71.1%	77.7%	566 nM	41.8 nM	–	–	–	–	–	–	–	–	–
Cc1cccc(N2CCN(S(=O)(=O)N3CCCN(CC4CCCCC4)CCCN(S(=O)(=O)c4ccc(N(C)C)cc4)C[C@H](C)C3)CC2)c1 [A98, 4-{[(3S)-9-(cyclohexylmethyl)-3-methyl-5-{[4-(3-methylphenyl)piperazin-1-yl]sulfonyl}-1,5,9-triazacyclododecan-1-yl]sulfonyl}-N,N-dimethylaniline]	32.8%	> 25000 nM	> 25000 nM	351 nM	26.9%	57.5%	55.2%	7340 nM	202 nM	–	–	–	–	–	–	–	–	–
Cc1ccc(N2CCN(S(=O)(=O)N3CCCN(CC4CCCCC4)CCCN(S(=O)(=O)c4ccc(N(C)C)cc4)C[C@H](C)C3)CC2)cc1 [A99, 4-{[(3S)-9-(cyclohexylmethyl)-3-methyl-5-{[4-(4-methylphenyl)piperazin-1-yl]sulfonyl}-1,5,9-triazacyclododecan-1-yl]sulfonyl}-N,N-dimethylaniline]	50.8%	> 25000 nM	> 25000 nM	350 nM	–	–	60.8%	3540 nM	116 nM	37%	41.9%	–	–	–	–	–	–	–
C[C@H]1CN(S(=O)(=O)c2ccc(N(C)C)cc2)CCCN(CC2CCCCC2)CCCN(S(=O)(=O)N2CCN(C(=O)c3ccccc3)CC2)C1 [A100, 4-{[(3S)-5-[(4-benzoylpiperazin-1-yl)sulfonyl]-9-(cyclohexylmethyl)-3-methyl-1,5,9-triazacyclododecan-1-yl]sulfonyl}-N,N-dimethylaniline]	–	–	–	–	–	–	–	–	–	0.04%	0.22%	2.18%	> 25000 nM	> 25000 nM	1560 nM	0.1%	> 25000 nM	1150 nM
